Assay results reported in paper PMC10065799, “High-throughput profiling of sequence recognition by tyrosine kinases and SH2 domains using bacterial peptide display” (eLife, 2023).

Target: T1, c-Abl kinase domain (Mus musculus, UniProt P00520)
T1 sequence (P00520 242-493 limits assumed): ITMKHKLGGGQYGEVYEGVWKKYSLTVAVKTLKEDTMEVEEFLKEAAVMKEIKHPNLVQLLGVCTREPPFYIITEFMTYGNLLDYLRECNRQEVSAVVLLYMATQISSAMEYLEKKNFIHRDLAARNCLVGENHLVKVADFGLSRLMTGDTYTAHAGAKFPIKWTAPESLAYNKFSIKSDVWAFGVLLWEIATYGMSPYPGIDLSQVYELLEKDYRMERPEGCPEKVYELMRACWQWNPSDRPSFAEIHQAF
Experiment: pTyr-Var library bacterial peptide display kinase screen (enrichment scores)
Assay type: biochemical
Conditions: variant versus reference peptide

## ATGLIYIGSHD [AASDH_Y870_T865A]
  c-Abl difference (mean log2 variant - mean log2 reference): 0.7644
